Here are results for 1 molecule from ChEMBL document CHEMBL5042540, “Discovery of Pteridine-7(8H)-one Derivatives as Potent and Selective Inhibitors of Bruton's Tyrosine Kinase (BTK)” (J Med Chem, 2022).

The nature of data set [1]: in vivo. The following applies: Sprague-Dawley, rat, po, 10 mg/kg.
Data set [2] is described as follows: in vivo. The following applies: Sprague-Dawley, rat, iv, 1 mg/kg.
Data set [3] in a line: in vivo. Particulars: Sprague-Dawley, rat, iv, 1 mg/kg. This is another data set of the same source.
Data set [4] is described as follows: in vivo. The following applies: Sprague-Dawley, rat, po, 10 mg/kg. The source holds these as a separate data set.
The nature of data set [5]: in vivo. The following applies: Sprague-Dawley, rat, iv, 1 mg/kg. The source holds these as a separate data set.
A short description of data set [6]: in vivo. The following applies: Sprague-Dawley, rat, iv, 1 mg/kg. The source holds these as a separate data set.

As usually defined, the bioavailability is dose-corrected exposure relative to a reference, in per cent. Low readings indicate little systemic uptake, high ones much systemic uptake. In general, half-life refers to the time in which the quantity being followed falls by half. By AUC(0-t) is commonly meant exposure summed from dosing to a finite time, without extrapolation to infinity. The low end stands for low exposure, the high end for high exposure. As a reminder, the Vd is the apparent volume that relates the amount in the body to the concentration in plasma or blood. A word on the clearance: it is a measure of how efficiently the substance is removed, as volume per time. Read a low clearance as a low capacity for elimination. The molecule `C=CC(=O)Nc1cccc(-n2c(=O)c(C3CCCCC3)nc3cnc(Nc4cccc(OCCOC)c4)nc32)c1` yielded a bioavailability in the data set “in vivo [1]” of 2.31%. The same molecule gave a half-life in “in vivo [2]” of 26.4 min. For the same molecule, the AUC(0-t) in “in vivo [3]” amounted to 290 ng·h/mL; in “in vivo [4]” it was 66.9 ng·h/mL. Further, in “in vivo [5]”, the Vd was determined as 1.16 L/kg. The same molecule had a clearance in “in vivo [6]” of 58.2 mL/min/kg.
